Consider four molecules from US8778966B2, “Quinolinone derivatives as PARP and tank inhibitors” (Janssen Pharmaceutica, NV, priority 2007, dated 2014).

The structures appear in SMILES notation.

This experiment relates to HCT116 cells. Put plainly: Mitotic arrest assay on HCT116 cells (phospho-histone H3 Ser10). It counts as cell-based, human. Conditions: Homo sapiens, HCT-116, HCT116 cells; lowest active dose; read-out: Mitotic arrest HCT116 LAD (converted). The method in brief:
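Read-out is imaging of phospho-histone H3 Ser10 (Alexa Fluor 488) with Hoechst nuclear counting, after 6 h compound exposure at 37 °C, DMSO ≤0.1%. LAD is the lowest dose at which the blank-corrected value over SD exceeds 5; triplicates, low-count wells excluded.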
`CCc1cc2ccc(C(C)(C#N)CCOc3cc(Cl)c(Cl)cc3Cl)cc2[nH]c1=O` (stereo not shown) [Compound 277]: the minimal effective concentration is 0.3 µM.

As to `CCc1cc2ccc(C(C)(C#N)CCOc3ccccc3F)cc2[nH]c1=O` (stereo not shown) [Compound 278], the minimal effective concentration is 1 µM. In the case of `CCc1cc2ccc(C(C)(C#N)CCOc3ccc4c(c3)OCO4)cc2[nH]c1=O` (stereo not shown) [Compound 279], the minimal effective concentration is 1 µM. Under `CCc1cc2ccc(C(C)(C#N)Cc3cc(OC)cc(OC)c3)cc2[nH]c1=O` (stereo not shown) [Compound 332] stands 0.1 µM.
